# Laboratory results taken from patent publication US8343993B2, “Hydroxyalkyl substituted imidazonaphthyridines” (3M Innovative Properties Company, priority 2005, dated 2013).
# Structures can show the parent of a compound that is named as a salt. Where two headings read alike, the source gives them in different places.
# How the values were obtained:
# IFN-α = test: Cytokine induction in human cells (PBMC): IFN-α secreted into culture media, ELISA; assay type: cell-based; conditions: median where several experiments; for minimal effective concentration: 30-0.014 μM, lowest concentration inducing over 20 pg/mL, read-out: Minimum Effective Concentration IFN
# Source text: (§1) An in vitro human blood cell system is used to assess cytokine induction. Activity is based on the measurement of interferon (α) and tumor necrosis factor (α) (IFN-α, and TNF-α, respectively) secreted into culture media as described by Testerman et. al. in “Cytokine Induction by the Immunomodulators Imiquimod and S-27609”, Journal of Leukocyte Biology, 58, 365-372 (September, 1995).
# (§2) Whole blood from healthy human donors is collected by venipuncture into vacutainer tubes or syringes containing EDTA. Peripheral blood mononuclear cells (PBMC) are separated from whole blood by density gradient centrifugation using HISTOPAQUE-1077 (Sigma, St. Louis, Mo.) or Ficoll-Paque Plus (Amersham Biosciences Piscataway, N.J.). Blood is diluted 1:1 with Dulbecco's Phosphate Buffered Saline (DPBS) or Hank's Balanced Salts Solution (HBSS). Alternately, whole blood is placed in Accuspin (Sigma) or LeucoSep (Greiner Bio-One, Inc., Longwood Fla.) centrifuge frit tubes containing density gradient medium. The PBMC layer is collected and washed twice with DPBS or HBSS and re-suspended at 4×10^6 cells/mL in RPMI complete. The PBMC suspension is added to 96 well flat bottom sterile tissue culture plates containing an equal volume of RPMI complete media containing test compound.
# (§3) The compounds are solubilized in dimethyl sulfoxide (DMSO). The DMSO concentration should not exceed a final concentration of 1% for addition to the culture wells. The compounds are generally tested at concentrations ranging from 30-0.014 μM. Controls include cell samples with media only, cell samples with DMSO only (no compound), and cell samples with reference compound.
# (§4) The solution of test compound is added at 60 μM to the first well containing RPMI complete and serial 3 fold dilutions are made in the wells. The PBMC suspension is then added to the wells in an equal volume, bringing the test compound concentrations to the desired range (usually 30-0.014 μM). The final concentration of PBMC suspension is 2×10^6 cells/mL. The plates are covered with sterile plastic lids, mixed gently and then incubated for 18 to 24 hours at 37° C. in a 5% carbon dioxide atmosphere.
# (§5) Following incubation the plates are centrifuged for 10 minutes at 1000 rpm (approximately 200×g) at 4° C. The cell-free culture supernatant is removed and transferred to sterile polypropylene tubes. Samples are maintained at −30 to −70° C. until analysis. The samples are analyzed for IFN-α by ELISA and for TNF-α by IGEN/BioVeris Assay.
# IFN-α concentration is determined with a human multi-subtype colorimetric sandwich ELISA (Catalog Number 41105) from PBL Biomedical Laboratories, Piscataway, N.J. Results are expressed in pg/mL.
# Analysis of the data has two steps. First, the greater of the mean DMSO (DMSO control wells) or the experimental background (usually 20 pg/mL for IFN-α and 40 pg/mL for TNF-α) is subtracted from each reading. If any negative values result from background subtraction, the reading is reported as “*” and is noted as not reliably detectable. In subsequent calculations and statistics, “*” is treated as a zero. Second, all, background subtracted values are multiplied by a single adjustment ratio to decrease experiment to experiment variability. The adjustment ratio is the area of the reference compound in the new experiment divided by the expected area of the reference compound based on the past 61 experiments (unadjusted readings). […] The reference compound used is 2-[4-amino-2-ethoxymethyl-6,7,8,9-tetrahydro-α,α-dimethyl-1H-imidazo[4,5-c]quinolin-1-yl]ethanol hydrate (U.S. Pat. No. 5,352,784; Example 91) and the expected area is the sum of the median dose values from the past 61 experiments.
# The minimum effective concentration is calculated based on the background-subtracted, reference-adjusted results for a given experiment and compound. […]
# TNF-α = test: Cytokine induction in human cells (PBMC): TNF-α secreted into culture media, ORIGEN M-Series immunoassay; assay type: cell-based; conditions: median where several experiments; for minimal effective concentration: 30-0.014 μM, lowest concentration inducing over 40 pg/mL, read-out: Minimum Effective Concentration TNF
# Source text: as §1, §2, §3, §4, §5
# The TNF-α concentration is determined by ORIGEN M-Series Immunoassay and read on an IGEN M-8 analyzer from BioVeris Corporation, formerly known as IGEN International, Gaithersburg, Md. The immunoassay uses a human TNF-α capture and detection antibody pair (Catalog Numbers AHC3419 and AHC3712) from Biosource International, Camarillo, Calif. Results are expressed in pg/mL.
# Analysis of the data has two steps. First, the greater of the mean DMSO (DMSO control wells) or the experimental background (usually 20 pg/mL for IFN-α and 40 pg/mL for TNF-α) is subtracted from each reading. If any negative values result from background subtraction, the reading is reported as “*” and is noted as not reliably detectable. In subsequent calculations and statistics, “*” is treated as a zero. Second, all, background subtracted values are multiplied by a single adjustment ratio to decrease experiment to experiment variability. The adjustment ratio is the area of the reference compound in the new experiment divided by the expected area of the reference compound based on the past 61 experiments (unadjusted readings). […] The reference compound used is 2-[4-amino-2-ethoxymethyl-6,7,8,9-tetrahydro-α,α-dimethyl-1H-imidazo[4,5-c]quinolin-1-yl]ethanol hydrate (U.S. Pat. No. 5,352,784; Example 91) and the expected area is the sum of the median dose values from the past 61 experiments. […]
melting point,Structure (SMILES),"minimal effective concentration (IFN-α; Table 3, 18 to 24 hours)","minimal effective concentration (IFN-α; Table 4, 18 to 24 hours)","minimal effective concentration (TNF-α; Table 3, 18 to 24 hours)","minimal effective concentration (TNF-α; Table 4, 18 to 24 hours)","Maximal Response IFN (IFN-α; Table 4, background-subtracted, reference-adjusted)","Maximal Response TNF (TNF-α; Table 4, background-subtracted, reference-adjusted, * = below background)"
234 to 235 °C,"COCCc1nc2c(N)nc3cccnc3c2n1CC(C)(C)O (as salt: hydrobromid) [Analog 2, 1-[4-amino-2-(2-methoxyethyl)-1H-imidazo[4,5-c][1,5]naphthyridin-1-yl]-2-methylpropan-2-ol]",,,,,,
157 to 159 °C,"CCOCc1nc2c(N)nc3cccnc3c2n1CC(C)(C)O [Analog 1, 1-(4-amino-2-ethoxymethyl-1H-imidazo[4,5-c][1,5]naphthyridin-1-yl)-2-methylpropan-2-ol]",0.12 µM,0.12 µM,1.11 µM,1.11 µM,,
,"COCCc1nc2c(N)nc3cccnc3c2n1CC(C)(C)O [Analog 2, 1-[4-amino-2-(2-methoxyethyl)-1H-imidazo[4,5-c][1,5]naphthyridin-1-yl]-2-methylpropan-2-ol, reference compound]",0.04 µM,0.04 µM,0.37 µM,0.37 µM,,
,"Cc1nc2c(N)nc3cccnc3c2n1CC(C)(C)O [Analog 3, 1-(4-amino-2-methyl-1H-imidazo[4,5-c][1,5]naphthyridin-1-yl)-2-methylpropan-2-ol, reference compound]",,0.37 µM,,3.33 µM,,
,"CCc1nc2c(N)nc3cccnc3c2n1CC(C)(C)O [Analog 4, 1-(4-amino-2-ethyl-1H-imidazo[4,5-c][1,5]naphthyridin-1-yl)-2-methylpropan-2-ol, reference compound]",,0.37 µM,,3.33 µM,,
,"CCCc1nc2c(N)nc3cccnc3c2n1CC(C)(C)O [Analog 5, 1-(4-amino-2-propyl-1H-imidazo[4,5-c][1,5]naphthyridin-1-yl)-2-methylpropan-2-ol, reference compound]",,0.12 µM,,1.11 µM,,
210 to 211 °C,"CCOCc1nc2c(N)nc3cccnc3c2n1CC(C)(C)NC(=O)C1CCCCC1 [Analog 6, N-[2-(4-amino-2-ethoxymethyl-1H-imidazo[4,5-c][1,5]naphthyridin-1-yl)-1,1-dimethylethyl]cyclohexanecarboxamide]",,0.014 µM,,0.014 µM,,
,"CCOCc1nc2c(N)nc3cccnc3c2n1CC(C)(C)NS(C)(=O)=O [Analog 7, N-[2-(4-amino-2-ethoxoxymethyl-1H-imidazo[4,5-c][1,5]naphthyridin-1-yl)-1,1-dimethylethyl]methanesulfonamide, reference compound]",,0.04 µM,,0.37 µM,2465 pg/mL,9234 pg/mL
,"Cc1nc2c(N)nc3cccnc3c2n1CC(C)(C)F [Analog 8, 1-(2-fluoro-2-methylpropyl)-2-methyl-1H-imidazo[4,5-c][1,5]naphthyridin-4-amine, reference compound]",,0.37 µM,,10 µM,,
,"CCOCc1nc2c(N)nc3cccnc3c2n1CC(C)C [Analog 9, 2-ethoxymethyl-1-(2-methylpropyl)-1H-imidazo[4,5-c][1,5]naphthyridin-4-amine, reference compound]",,0.12 µM,,1.11 µM,,
,"Cc1nc2c(N)nc3cccnc3c2n1CC(C)C [Analog 10, 2-methyl-1-(2-methylpropyl)-1H-imidazo[4,5-c][1,5]naphthyridin-4-amine, reference compound]",,0.37 µM,,1.11 µM,,
230 to 232 °C,"CC(C)(Cn1c(CO)nc2c(N)nc3cccnc3c21)NC(=O)C1CCCCC1 [Example 1, N-[2-(4-Amino-2-hydroxymethyl-1H-imidazo[4,5-c][1,5]naphthyridin-1-yl)-1,1-dimethylethyl]cyclohexanecarboxamide]",,1.11 µM,,10 µM,,
